Laboratory results reported in patent US12391685B2, “Inhibitors of RNA-guided nuclease target binding and uses thereof” (THE BROAD INSTITUTE, INC., priority 2018, dated 2025).

Experiments:
SpCas9:gRNA complex = molecular target: T1, SpCas9:gRNA complex (Streptococcus pyogenes serotype M1, UniProt Q99ZW2); assay: Bio-layer interferometry (BLI), compound-SpCas9 interaction; format: binding, S. pyogenes; details: 1 μM biotinylated compound on streptavidin sensors, SpCas9:gRNA 0.15-1 μM; read-out: dissociation constant
T1 construct: made in house; host or cells: E. coli Rosetta (DE3)
Experimental: Compound-SpCas9 interaction in BLI. The experiments were performed in a 96-well format with 180 μL reaction volume using […] and streptavidin sensors. 1 μM of the biotinylated compound was loaded onto the sensors for 180 s in 20 mM Tris buffer (100 mM KCl, 5 mM MgCl2, 1 mM DTT, 0.01% Tween, pH 7.4). Compound-loaded sensors were then allowed to associate with different concentrations of the SpCas9:gRNA complex (0.15-1 μM) for 300 s, followed by dissociation in reaction buffer. The reference sensor was loaded with compound and allowed to associate and dissociate in reaction buffer alone. Response curves were fitted with a 2:1 stoichiometric model and a global fit steady-state analysis was performed using manufacturer's protocol. Experiments were performed in triplicate.
Competition experiments were performed using biotin-linker fragment. In this experiment, streptavidin sensors were pre-incubated with 10 μM of biotin-linker for 10 min before dipping into a solution of either 1 μM BRD7087-biotin or reaction buffer alone. Sensors were then allowed to associate with different concentration of SpCas9:gRNA complex (0.15-1 μM) or buffer alone.

SpCas9 [1] = molecular target: T2, SpCas9 (Streptococcus pyogenes serotype M1, UniProt Q99ZW2); assay: mKate2-disruption assay in HEK293T cells; format: cell-based, S. pyogenes; details: 1.5-5 μM, 24 h
Experimental: mKate2-disruption assay. Approximately 8,000 cells/well were seeded in a 96-well plate 24 h before transient transfection with 100 ng of either CgRNA (Addgene Plasmid #64955) or T1gRNA (Addgene Plasmid #62717) plasmids using Lipofectamine 2000 (Life Technologies). Transfected cells were allowed to grow in the indicated amount of small molecule or DMSO for 24 h. Cells were then fixed using 4% paraformaldehyde and imaged with the HCS NuclearMask™ Blue Stain (Life Technologies) as the nuclear counter-staining agent. Imaging was performed with an ImageXpress Micro automated microscope (Molecular Devices) at 20× magnification under two excitation channels (blue and red) with 9 acquisition sites per well. Images were analyzed using the MetaXpress software to determine the % mKate2 positive cells and data was plotted using GraphPad Prism 6. The Z′-value was calculated following the formula: Z′=1−(3(σ1+σ2))/(|μ1−μ2|) where σ1 and σ2 are the standard deviations of CgRNA transfected wells and T1gRNA transfected wells respectively. μ1 and μ2 are the mean % RFP^+ cell population for CgRNA transfected wells and T1gRNA transfected wells, respectively.

SpCas9 [2] = molecular target: T2, SpCas9; assay: NHEJ assay in HEK293T cells; format: cell-based, S. pyogenes; details: 2-10 μM, 24 h
Experimental: NHEJ assay. Approximately 8,000 cells/well were seeded in a 96-well plate 24 h before transient transfection with a total 100 ng of DN66 (mCherry—TAG—GFP reporter) and DN78 (SpCas9 and gRNA) plasmids (1:1) using Lipofectamine 2000 (Life Technologies) (Nguyen et al., 2016b). Transfected cells were incubated with the indicated amount of small molecule or DMSO for 24 h. Cells were then fixed using 4% paraformaldehyde and imaged with the HCS NuclearMask™ Blue Stain (Life Technologies) as the nuclear counter-staining agent. Imaging was performed with an ImageXpress Micro automated microscope (Molecular Devices) at 4× magnification under three excitation channels (blue, green and red) with 9 acquisition sites per well. Images were analyzed in the MetaXpress software to determine the % NHEJ and the data were plotted using GraphPad Prism 6. The Z′-value was calculated following the formula: Z′=1−(3(σ1+σ2))/(|μ1−μ2|) where σ1 and σ2 are the standard deviations of DN66 transfected wells and (DN66+DN78) transfected wells respectively. μ1 and μ2 are the mean % GFP cell population for DN66 transfected wells and (DN66+DN78) transfected wells respectively.

[3] = molecular target: T3, dCas9-based transcription-activation complex (Streptococcus pyogenes serotype M1, UniProt Q99ZW2, D10A, form not given); assay: dCas9-based transcription activation of HBG1 in HEK293FT cells (RT-qPCR); format: cell-based, S. pyogenes; details: 20 μM
T3 construct: "dSpCas9|Feng Zhang lab|NA"; The MS2-p65-HSF1(-GFP) effector is a separate chain recruited through MS2 aptamers in the sgRNA
Experimental: Transcription activation experiments and quantitative RT-PCR analyses. HEK293FT cells were maintained in high glucose DMEM with glutamax (Life Technologies) and supplemented with 10% FBS (Life Technologies), 1% penicillin-streptomycin (Life Technologies) and 1 mM sodium pyruvate (Life Technologies). For transcription activation experiments, 20,000 cells/well were plated in a poly D-lysine-coated 96-well plate. The cells were transiently transfected with a 1:1:1 mass ratio of the dCas9 plasmid, MS2-P65-HSF1 effector plasmid and the sgRNA plasmid targeting the HBG1 gene or an RFP control plasmid. A total of 0.3 μg plasmid DNA was transfected using Lipofectamine 2000 (Life Technologies) according to manufacturer's protocol. Immediately after transfection, the cells were treated with an appropriate dose of the small-molecule inhibitors. A DMSO solution of compound (20 mM) was resuspended in the 10% FBS containing growth media and thoroughly mixedbefore adding to the cells. After 48 h the cells were lysed and 5 μL of the cell lysate was used to perform reverse transcription using the RevertAid RT Reverse Transcription Kit (Thermo Fischer Scientific) as described by Joung J. et al. qPCR reactions were performed to quantify RNA expression using the TaqMan probes (Life Technologies, HBG1/HBG2: Hs00361131_g1, ACTB: Hs01060665_g1) and TaqMan Fast Advanced Master Mix (Life Technologies) in 5 μL multiplexed reactions and 384-well format using the LightCycler 480 Instrument II (Roche). For each sample, four technical replicates were performed. Data were analyzed using the LightCycler 480 software (Roche) by the ΔΔCt method: Ct values for the gene of interest (HBG1) were normalized to Ct values for the housekeeping gene (ACTB), and fold-changes in the expression level of gene of interest were normalized to RFP-transfected control. The data is reported as mean±S.E.M. for technical replicates.

SpCas9 [4] = molecular target: T2, SpCas9; assay: eGFP-disruption assay in U2OS.eGFP.PEST cells; format: cell-based, S. pyogenes; parameters: host or cells: U2OS.eGFP.PEST; details: U2OS.eGFP.PEST cells
Experimental: SpCas9 nuclease activity in eGFP-disruption assay. Approximately 200,000 U2OS.eGFP-PEST cells were nucleofected following two different methods either by nucleofecting plasmids or RNP using the SE Cell Line 4D-Nucleofector™ X Kit (Lonza) according to the manufacturer's protocol. In the plasmid nucleofection method, cells were nucleofected either with 440 ng of SpCas9 (Addgene Plasmid #43861) or 400 ng of SpCas9 along with 40 ng of sgRNA (pFYF1320 eGFP Site #1, Addgene Plasmid #47511). Cells nucleofected only with SpCas9-expressing plasmid were used as the transfection control. In the RNP nucleofection method, either […] SpCas9 or 20 pmol preformed SpCas9:gRNA (eGFP Site #1) complex were nucleofected. Approximately 20,000 transfected cells/well were plated in 4 replicates in a 96-well plate (Corning® 3904). Cells were incubated with the indicated amount of compound or DMSO for 24 h post transfection. A DMSO solution of compound (20 mM) was resuspended in the 10% FBS containing growth media and thoroughly mixed before adding to the cells. Cells were then fixed using 4% paraformaldehyde and imaged with the HCS NuclearMask™ Blue Stain (Life Technologies) as the nuclear counter-staining agent. Imaging was performed with an ImageXpress Micro automated microscope (Molecular Devices) at 10× magnification under three excitation channels (blue, green and red) acquiring nine sites per well. Images were analyzed using MetaXpress software and data were plotted using GraphPad Prism 6.
The Z′-value was calculated using the equation (1), where σ1 and σ2 are the standard deviations of DMSO control and SpCas9:gRNA control respectively. μ1 and μ2 are the mean % GFP^− cell population for DMSO control and SpCas9:gRNA control, respectively.

[5] = tested on: U2OS.eGFP.PEST cells and HEK293T cells; assay: Cell viability (ATP content); details: 5-20 μM, 24 h
SpCas9 [6] = molecular target: T2, SpCas9; assay: In vitro pulldown from WM793-SpCas9 cell lysate; format: binding, S. pyogenes; parameters: host or cells: U2OS.eGFP.PEST; details: streptavidin magnetic beads, 12 h
SpCas9 [7] = molecular target: T2, SpCas9; assay: In vitro pull-down assay with preformed SpCas9:gRNA complex; format: binding, S. pyogenes; parameters: made in house; host or cells: E. coli Rosetta (DE3)
Experimental: In vitro pull-down assay. Pull-down of SpCas9 by biotinylated compound was performed by incubating a preformed SpCas9:gRNA complex with biotin-compound pre-loaded streptavidin magnetic beads. Initially, a 5 μM biotin compound was incubated with 120 μL streptavidin magnetic bead suspension for 30 min in 1× Cas9 activity buffer (20 mM Tris-HCl buffer, 150 mM KCl, 5 mM MgCl2, 1 mM DTT, pH 7.5). Next, beads were collected and washed with buffer twice and resuspended in 120 μL of 1× Cas9 activity buffer and distributed in 6 different tubes. A 0.3 μM of 480 μL of preformed SpCas9:gRNA complex were added to each tube along with the unlabeled BRD3433 compound (5 μM and 10 μM) in the competition experiment. The tubes were incubated at 4° C. for 12 h before collecting the beads and washed with 500 μL 1× Cas9 activity buffer. The beads were resuspended in 1× SDS gel loading buffer and denatured at 98° C. for 10 min. The samples were analyzed by electrophoresis followed by staining with Coomassie for 15 min before imaging.

T2 sequence (Q99ZW2 whole entry): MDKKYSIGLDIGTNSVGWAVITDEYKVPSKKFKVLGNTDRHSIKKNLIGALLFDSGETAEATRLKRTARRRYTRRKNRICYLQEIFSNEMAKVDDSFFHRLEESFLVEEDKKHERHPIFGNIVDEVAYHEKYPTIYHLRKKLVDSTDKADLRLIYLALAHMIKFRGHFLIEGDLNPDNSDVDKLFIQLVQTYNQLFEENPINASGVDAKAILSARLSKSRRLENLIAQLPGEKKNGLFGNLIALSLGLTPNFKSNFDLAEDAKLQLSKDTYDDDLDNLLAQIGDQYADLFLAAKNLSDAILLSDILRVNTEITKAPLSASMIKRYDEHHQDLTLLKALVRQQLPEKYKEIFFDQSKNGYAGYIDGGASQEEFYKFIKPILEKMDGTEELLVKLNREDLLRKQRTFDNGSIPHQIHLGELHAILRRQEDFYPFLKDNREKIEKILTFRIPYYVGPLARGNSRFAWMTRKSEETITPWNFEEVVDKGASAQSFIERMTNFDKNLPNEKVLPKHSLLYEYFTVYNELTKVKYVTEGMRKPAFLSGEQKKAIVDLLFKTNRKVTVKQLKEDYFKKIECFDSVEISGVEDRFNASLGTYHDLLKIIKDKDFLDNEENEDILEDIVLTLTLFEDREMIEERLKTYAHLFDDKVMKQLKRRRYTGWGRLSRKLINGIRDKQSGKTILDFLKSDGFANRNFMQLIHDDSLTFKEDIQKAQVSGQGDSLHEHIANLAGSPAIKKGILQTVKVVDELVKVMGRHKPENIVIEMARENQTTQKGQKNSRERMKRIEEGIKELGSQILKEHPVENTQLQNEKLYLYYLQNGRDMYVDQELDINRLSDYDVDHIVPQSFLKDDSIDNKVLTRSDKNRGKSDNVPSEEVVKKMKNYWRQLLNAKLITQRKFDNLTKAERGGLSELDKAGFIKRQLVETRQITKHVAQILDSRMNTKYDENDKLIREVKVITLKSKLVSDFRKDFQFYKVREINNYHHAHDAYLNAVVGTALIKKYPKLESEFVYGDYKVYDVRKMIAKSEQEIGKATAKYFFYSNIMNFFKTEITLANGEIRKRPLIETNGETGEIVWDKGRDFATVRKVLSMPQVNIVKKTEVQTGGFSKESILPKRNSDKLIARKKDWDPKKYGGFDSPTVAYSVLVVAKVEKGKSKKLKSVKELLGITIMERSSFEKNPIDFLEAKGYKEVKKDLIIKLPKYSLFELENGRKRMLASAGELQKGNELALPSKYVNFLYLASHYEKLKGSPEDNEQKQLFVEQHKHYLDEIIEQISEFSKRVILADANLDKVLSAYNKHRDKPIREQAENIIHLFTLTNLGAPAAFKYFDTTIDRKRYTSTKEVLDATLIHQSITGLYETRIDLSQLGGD
T3 sequence (Q99ZW2 whole entry, form open, one chain of several, change not shown): as the sequence (Q99ZW2 whole entry) above
T1 sequence (Q99ZW2 whole entry, one chain of several): as the sequence (Q99ZW2 whole entry) above

O=C(CCCC[C@@H]1SC[C@@H]2NC(=O)N[C@@H]21)NCCOCCOCCOCCC(=O)Nc1cccc(-c2ccc3c(c2)[C@H]2[C@H](CCN2Cc2ccncc2)[C@@H](CO)N3)c1 [BRD3539, N-(2-(2-(2-(3-((3-((3aR,4S,9bR)-4-(Hydroxymethyl)-1-(pyridin-4-ylmethyl)-2,3,3a,4,5,9b-hexahydro-1H-pyrrolo[3,2-c]quinolin-8-yl)phenyl)amino)-3-oxopropoxy)ethoxy)ethoxy)ethyl)-5-((3aS,4S,6aR)-2-oxohexahydro-1H-thieno[3,4-d]imidazol-4-yl) pentanamide]
Kd (SpCas9:gRNA complex): 700 nM

COc1ccc(-c2ccc3c(c2)[C@H]2[C@H](CCN2Cc2ccncc2)[C@@H](CO)N3)cc1 [BRD5779, ((3aR,4S,9bR)-8-(4-Methoxyphenyl)-1-(pyridin-4-ylmethyl)-2,3,3a,4,5,9b-hexahydro-1H-pyrrolo[3,2-c]quinolin-4-yl) methanol]
inhibition of SpCas9 in the mKate2 disruption assay (in words) (SpCas9 [1]): dose-dependent inhibition | inhibition of SpCas9 in the NHEJ assay (in words) (SpCas9 [2]): dose-dependent inhibition | inhibition of transcriptional activation [3]: ~60% | inhibition of SpCas9 in the eGFP-disruption assay (in words) (SpCas9 [4]): dose-dependent inhibition | cytotoxicity (in words) [5]: non-cytotoxic

Cc1ccc(S(=O)(=O)N2CC[C@@H]3[C@H](CNC(=O)CCOCCOCCOCCNC(=O)CCCC[C@@H]4SC[C@@H]5NC(=O)N[C@@H]54)Nc4ccc(-c5ccccc5F)cc4[C@@H]32)cc1 [biotinylated BRD0539, N-(1-((3aR,4R,9bR)-8-(2-fluorophenyl)-1-tosyl-2,3,3a,4,5,9b-hexahydro-1H-pyrrolo[3,2-c]quinolin-4-yl)-3-oxo-6,9,12-trioxa-2-azatetradecan-14-yl)-5-((3aS,4S,6aR)-2-oxohexahydro-1H-thieno[3,4-d]imidazol-4-yl) pentanamide]
pulldown of SpCas9 from WM793-SpCas9 cell lysate (SpCas9 [6]): able to pulldown SpCas9

COc1cccc(-c2ccc3c(c2)[C@H]2[C@H](CCN2C(=O)Cc2ccncc2)[C@H](CNC(=O)CCOCCOCCOCCNC(=O)CCCC[C@@H]2SC[C@@H]4NC(=O)N[C@@H]42)N3C)c1 [biotinylated BRD3433, N-(1-((3aS,4R,9bR)-8-(3-methoxyphenyl)-5-methyl-1-(2-(pyridin-4-yl)acetyl)-2,3,3a,4,5,9b-hexahydro-1H-pyrrolo[3,2-c]quinolin-4-yl)-3-oxo-6,9,12-trioxa-2-azatetradecan-14-yl)-5-((3aS,4S,6aR)-2-oxohexahydro-1H-thieno[3,4-d]imidazol-4-y1) pentanamide]
pull-down of SpCas9 (gel electrophoresis) (SpCas9 [7]): enrichment of SpCas9 in the eluent
